Results as given in PubChem BioAssay (NCI).
Several values for one entry are separate records, joined by “and”; a condition that tells them apart may be missing. Identical values can stand only once.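 Test compounds were applied to cells in 96-well plates for 48 hours at 5 doses. The concentration for 50% growth inhibition is given as GI50. The concentration for full growth arrest is given as TGI.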

Columns and labels:
Assay in all cases: NCI-60 cell line screen, 48 h
A498 renal = system: A498 renal
A549 NSCLC = system: A549 NSCLC
HS 578T breast = system: HS 578T breast
LOX IMVI melanoma = system: LOX IMVI melanoma
NCI-H226 lung = system: NCI-H226 lung
NCI-H460 lung = system: NCI-H460 lung
NCI-H522 lung = system: NCI-H522 lung
NCI/ADR-RES ovarian = system: NCI/ADR-RES ovarian
SF-295 CNS = system: SF-295 CNS
U251 CNS = system: U251 CNS

| SMILES | TGI (A498 renal) | TGI (A549 NSCLC) | TGI (HS 578T breast) [µM] | TGI (LOX IMVI melanoma) [µM] | TGI (NCI-H226 lung) | TGI (NCI-H460 lung) | TGI (NCI-H522 lung) | TGI (NCI/ADR-RES ovarian) [µM] | TGI (SF-295 CNS) [µM] | TGI (U251 CNS) | GI50 (A498 renal) | GI50 (A549 NSCLC) | GI50 (HS 578T breast) | GI50 (LOX IMVI melanoma) | GI50 (NCI-H226 lung) | GI50 (NCI-H460 lung) | GI50 (NCI-H522 lung) | GI50 (NCI/ADR-RES ovarian) [µM] | GI50 (SF-295 CNS) | GI50 (U251 CNS) |
| --- | --- | --- | --- | --- | --- | --- | --- | --- | --- | --- | --- | --- | --- | --- | --- | --- | --- | --- | --- | --- |
| Cn1c2ccc3cc2c(=S)c2cc(ccc21)OCCOCCOCCOCCOCCOCCO3 | > 10 µM | > 10 µM | > 10 | > 10 | > 10 µM | > 10 µM | > 10 µM | > 10 | > 10 | > 10 µM | – | – | – | – | – | – | – | – | – | – |
| CC1=C2C(=C[C@@](C)(CO)[C@@H]2O)C(=O)[C@](C)(O)C12CC2 | 0.0288 µM | 0.0885 µM and 0.2 µM | 0.0428 | 0.0376 | 0.0507 µM and 0.0611 µM | 0.00701 µM and 0.0108 µM | 0.0108 µM | 0.0243 | – | 0.0243 µM and 0.0794 µM | – | – | – | – | – | – | – | – | – | – |
| C#CCn1c(=O)c2ccccc2n(CC#C)c1=O | > 10 µM | > 10 µM | > 10 | > 10 | > 10 µM | > 10 µM | > 10 µM | > 10 | > 10 | > 10 µM | – | – | – | – | – | – | – | – | – | – |
| Cc1nnc(NC(=O)c2nc(S(=O)(=O)Cc3ccc(F)cc3)ncc2Cl)s1 | 26.4 µM | 35.3 µM | 50.8 | 2.96 | 25.7 µM | 35.1 µM | 2.46 µM | 50.1 | 30.7 | 15.5 µM | 13.1 µM | 18.8 µM | 12.7 µM | 1.5 µM | 6.27 µM | 17.4 µM | 0.729 µM | 14.2 | 15.9 µM | 4.12 µM |
| CC1SC(c2ccc(F)cc2)N(NC(=O)C(O)c2ccccc2)C1=O (configuration not stated) | > 100 µM | > 100 µM | > 100 | > 100 | > 100 µM | > 100 µM | > 100 µM | > 100 | > 100 | > 100 µM | > 100 µM | > 100 µM | > 100 µM | > 100 µM | > 100 µM | > 100 µM | > 100 µM | > 100 | > 100 µM | > 100 µM |
| COc1ccc(/C=N/NC(=O)c2cccc3cc[nH]c23)cc1O | 86.1 µM | > 100 µM | > 30.3 | > 100 | > 33.7 µM | > 68.3 µM | > 100 µM | > 100 | > 24.8 | > 100 µM | 4.05 µM | 5.36 µM | 1.47 µM | 1.3 µM | 6.28 µM | 2.03 µM | 2.26 µM | 1.86 | 0.736 µM | 2.4 µM |
| COc1ccc(C2[C@@H](c3ccccc3)C(=O)N2c2cc(OC)c(OC)c(OC)c2)cc1F (some centres not stated) | 0.0861 µM | > 100 µM | 78.7 | 13.8 | > 100 µM | > 100 µM | 0.0657 µM | > 100 | 1.78 | > 100 µM | 0.027 µM | 0.0368 µM | 0.0434 µM | 0.0296 µM | 0.035 µM | 0.0344 µM | 0.0186 µM | 0.0394 | 0.029 µM | 0.0359 µM |
| C=C1C(=O)O[C@H]2[C@H]1CC/C(COC(=O)NCc1ccc(Cn3c(=O)sn(-c4ccc(OC)cc4)c3=O)cc1)=C\CC[C@@]1(C)O[C@@H]21 | 17.8 µM | 29.1 µM | 14.2 | 3.12 | 30.7 µM | 13.5 µM | 3.1 µM | 28.8 | 28.9 | 13.9 µM | 5.65 µM | 15.2 µM | 2.92 µM | 1.73 µM | 12.9 µM | 3.7 µM | 1.67 µM | 12.3 | 15 µM | 4.11 µM |
| O=C(O)c1nc2nc(Cl)c(Cl)nc2[nH]1 | > 100 µM | > 100 µM | > 100 | > 100 | > 100 µM | > 100 µM | > 100 µM | > 100 | > 100 | > 100 µM | – | – | – | – | – | – | – | – | – | – |
| COc1ccc(-c2cn[nH]c2-c2cc(OC)c(OC)c(OC)c2)cc1 | 0.0715 µM | > 38.7 µM | 22.5 | 20.7 | 20.6 µM | 10.5 µM | 0.0385 µM | 40.2 | 0.0379 | 1.7 µM | – | 0.0346 µM | 0.0408 µM | 0.123 µM | 0.111 µM | 0.0351 µM | 0.0101 µM | 0.0305 | – | 0.0358 µM |
| Nc1ccccc1SC(CC(=O)c1ccccc1)c1cccc([N+](=O)[O-])c1 (configuration not stated) | 30.9 µM | 36.7 µM | 57.3 | 4.07 | 35.2 µM | 38.8 µM | 29.5 µM | 42.8 | 30.3 | 20.7 µM | 16.6 µM | 18.6 µM | 21.5 µM | 1.99 µM | 17.1 µM | 19.4 µM | 15 µM | 20.4 | 16.2 µM | 7.51 µM |
| N#CC(C#N)=C/C=C(\Sc1nc2ccccc2s1)c1ccc(Cl)cc1 | 28.6 µM | 30.5 µM | 27.9 | > 26.5 | 22.8 µM | > 64.9 µM | 41.9 µM | 22.6 | 27.7 | 36.4 µM | 8.26 µM | 9.32 µM | 6.68 µM | 2.59 µM | 7.73 µM | 18 µM | 10.1 µM | 7.19 | 8.9 µM | 6.82 µM |
| O=C1NC(=NC(CO)Cc2ccccc2)S/C1=C\c1ccc2ncccc2c1 (configuration not stated) | > 25 µM and 7.67 µM | > 25 µM | > 25 | > 25 | > 25 µM | > 25 µM | > 25 µM and 10 µM | > 25 | > 25 | > 25 µM | > 15.2 µM and 1.96 µM | 16.4 µM and 2.96 µM | 11.3 µM and 7.01 µM | 16.5 µM and 3.85 µM | > 25 µM and 5.55 µM | 14.6 µM and 3.02 µM | 8.38 µM and 2.85 µM | > 25 | > 25 µM and 5.5 µM | > 20.9 µM and 2.29 µM |
| C[C@]12CCC3c4ccc(O)cc4CCC3C1CC[C@@]2(O)CNC(=O)/C=C/c1ccc(O)c(O)c1 (some centres not stated) | 29.8 µM | 9.68 µM | 30.8 | 6.52 | 33.1 µM | 31.6 µM | 5.91 µM | > 100 | 22.1 | 10.6 µM | 14.9 µM | 2.63 µM | 6.24 µM | 2.37 µM | 15.4 µM | 4.9 µM | 2.51 µM | 23.9 | 4.07 µM | 3.02 µM |
